Source: patent publication US10821152B2, “Methods, agents and compositions for treatment of inflammatory conditions” (Betanien Hospital, priority 2014, dated 2020)
Non-standard residues stand in square brackets, D forms with d. Residues, ends and D or L forms follow the SMILES beside them. d(hArg(Et2)) = CCN=C(NCC)NCCCC[C@@H](N)C(=O)O; hArg(Et2) = CCN=C(NCC)NCCCC[C@H](N)C(=O)O; dPhe(4-Cl) = N[C@H](Cc1ccc(Cl)cc1)C(=O)O; d2Nal = N[C@H](Cc1ccc2ccccc2c1)C(=O)O; d3Pal = N[C@H](Cc1cccnc1)C(=O)O

What was measured:
Type in all cases: in vivo, human
[1] = system: patient with ulcerative colitis; experiment: GnRH antagonist treatment for colitis (Ganirelix)
Procedure: • person with ulcerative colitis for the past 10 years Experimental Treatment • Is offered Ganirelix 2 mg daily for 6months Assessment of Response • By 6 months they experience clinical remission with a partial Mayo score reduction from 3 to 0.

[2] = system: patient with tendonitis of the elbow; experiment: GnRH antagonist injection around tendon in tendonitis; settings: 1.5 mg injected around the affected tendon, 2 week post injection
Procedure: • person diagnosed with tendonitis of the elbow with ultrasound confirming tendonitis. Experimental Treatment • Treated with an injection of GnRH antagonist, Ganirelix 1.5 mg, around the affected tendon. Assessment of Response • Before and 2 week post injection ultrasound images are taken to show a decrease in tendonitis of the elbow.

[3] = system: patient with seropositive rheumatoid arthritis; experiment: Treatment of RA using Ganirelix
Procedure: • person with seropositive rheumatoid arthritis with disease duration of 10 years. • Fulfilled ACR 2010 classification criteria for rheumatoid arthritis. Experimental Treatment • Had tried almost all available rheumatoid arthritis therapies available previously without effect. • Offered experimental GnRH antagonist therapy, Ganirelix 0.75 mg sc daily (0.25 mg sc three times a day) Assessment of Response at 4 Months • Disease activity score (DAS) reduction from 5.5 to 2.2 (remission). • A DAS reduction of 0.6 units is defined as a clinical response to treatment (1). • Their ESR decreased from 28 mm to 19 mm, with a normalization of their CRP from 23 mg/L to 5 mg/L. This is supported by the decrease in their anti-cyclic citrullinated peptide (CCP) antibodies from 27 u/mL. to 14 u/mL.

CCN=C(NCC)NCCCC[C@H](NC(=O)[C@H](CC(C)C)NC(=O)[C@@H](CCCCNC(=NCC)NCC)NC(=O)[C@H](Cc1ccc(O)cc1)NC(=O)[C@H](CO)NC(=O)[C@@H](Cc1cccnc1)NC(=O)[C@@H](Cc1ccc(Cl)cc1)NC(=O)[C@@H](Cc1ccc2ccccc2c1)NC(C)=O)C(=O)N1CCC[C@H]1C(=O)N[C@H](C)C(N)=O [Ganirelix] (Ac-[d2Nal][dPhe(4-Cl)][d3Pal]SY[d(hArg(Et2))]L[hArg(Et2)]P[dA]-NH2)
partial Mayo score ([1]; Ganirelix 2 mg daily, by 6 months (clinical remission)): 0
partial Mayo score ([1]; before Ganirelix): 3
tendonitis of the elbow on ultrasound [2]: decrease
CRP ([3]; at 4 months): 5 mg/L
ESR ([3]; at 4 months): 19 mm
anti-cyclic citrullinated peptide (CCP) antibodies ([3]; at 4 months): 14 u/mL
rheumatoid factor level ([3]; at 4 months): 75 kIU/L
Disease activity score (DAS) ([3]; at 4 months, 0.75 mg sc daily (remission)): 2.2
CRP ([3]; before Ganirelix): 23 mg/L
Disease activity score (DAS) ([3]; before Ganirelix): 5.5
ESR ([3]; before Ganirelix): 28 mm
anti-cyclic citrullinated peptide (CCP) antibodies ([3]; before Ganirelix): 27 u/mL
rheumatoid factor level ([3]; before Ganirelix): 113 kIU/L
